Here are results for two compounds from US20230036060A1, “DUAL-CONTROLLED DRUG AND PHOTOACTIVATABLE SYSTEM FOR SPATIOTEMPORAL CONTROL OF CELL THERAPY” (THE REGENTS OF THE UNIVERSITY OF CALIFORNIA, priority 2019, published 2023).

Some results are limits rather than exact numbers.

For series [1] the following is noted: cited from earlier work.
In a further series the target is T1, ERT2-mCherry (Homo sapiens, UniProt P03372, G400V/L544A/M543A).
T1 construct: expressed in transfected cells; host or cells: HEK293T
T1 sequence (P03372 311-547 G400V/M543A/L544A limits assumed): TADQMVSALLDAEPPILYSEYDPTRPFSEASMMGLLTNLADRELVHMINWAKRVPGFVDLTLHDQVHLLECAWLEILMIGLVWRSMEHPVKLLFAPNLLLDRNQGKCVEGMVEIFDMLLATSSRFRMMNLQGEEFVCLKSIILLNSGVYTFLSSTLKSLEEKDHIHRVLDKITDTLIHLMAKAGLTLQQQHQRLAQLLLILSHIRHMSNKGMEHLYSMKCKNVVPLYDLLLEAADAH
Put plainly: Time-lapse fluorescence microscopy of 4-OHT-induced nuclear translocation of ERT2-mCherry in HEK293T cells. The series is classed as cell-based. Particulars: 4-OHT 500 nM. As for the experimental part:
FIG. 2E illustrates representative time-lapse fluorescence microscopy images of HEK293T cells transiently expressing ERT2-mCherry before and after the addition of nuclear-localizing 4-OHT (500 nM) (imaged every 2 min, 100× mag., scale bar=10 μm, n=6 independently measured cells).
Tamoxifen-induced nuclear import translocation dynamics in HEK293T cells were further characterized using an ERT2-mCherry fusion protein (Fig. S1F). Using time-lapse fluorescence microscopy, we discovered that nuclear translocation driven by 4-OHT (500 nM) occurred on the order of hours. ERT2-mCherry protein was only clearly nuclear-localized (with a nuclear-to-cytosolic mean fluorescence intensity ratio≥2) after approximately three hours (FIG. 2E), highlighting an effective time window for blue light stimulation to drive robust Cre-loxP recombination in ERT2-based photoactivatable construct designs.

For the compound `CC/C(=C(\c1ccccc1)c1ccc(OCCN(C)C)cc1)c1ccccc1` [tamoxifen], the “terminal elimination half-life (plasma concentrations)” value in series [1] was 5 to 7 h.

For the compound 4-hydroxytamoxifen [4-OHT], the “time to significant 4-OHT-induced nuclear translocation of ERT2-mCh fusion protein” value on ERT2-mCherry is given as “approximately 3 h”. Also, the “nuclear-to-cytosolic mean fluorescence intensity ratio of ERT2-mCherry” value at ERT2-mCherry (after approximately three hours) is given as at least 2.
